Results taken from patent US20200323772A1, “TREATMENT OF INFLAMMATORY DISEASE USING INGESTIBLE DEVICE TO RELEASE IMMUNE MODULATOR” (Progenity, Inc., priority 2017, published 2020).

Assays:
[1] = Pharmacokinetic study of oral vs intra-cecal tacrolimus: blood, GI tissue, luminal and rectal content concentrations (Example 13); parameters: species or system Yorkshire-Cross farm swine; conditions: in vivo, 0.09 mg/kg
Excerpt: (§1) No further randomization procedure was employed.

[2] = Tissue, plasma, rectal and GI content pharmacokinetics of tacrolimus, oral vs intra-cecal ingestible device (Example 10); parameters: species or system Yorkshire-Cross farm swine; conditions: in vivo
Experimental: The primary objective of this study was to compare the tissue, plasma, rectal sample, and GI content pharmacokinetics of tacrolimus through oral versus intra-cecal ingestible device delivery in normal Yorkshire-Cross farm swine.
as §1
Animals in Group 1 received an ingestible device containing 0.8 mL of vehicle solution (80% alcohol, 20% HCO-60). Animals in Group 2 received orally […] liquid formulation of tacrolimus at 4 mg/0.8 mL per animal (Prograf: 5 mg/mL). Animals in Group 3 received intra-cecally an ingestible device containing tacrolimus at 1 mg in 0.8 mL per ingestible device. Animals in Group 4 received intra-cecally an ingestible device containing tacrolimus at 2 mg in 0.8 mL per ingestible device. Animals in Group 5 received intra-cecally an ingestible device containing tacrolimus at 4 mg in 0.8 mL per ingestible device. To control for potential confounding effects of the surgery, all groups fast on Day −11 at least 24 hr before being subjected to anesthesia followed by surgical placements of a cecal port by a veterinary surgeon at Day −10. All animals were fasted for at least 12 hr prior to dosing on Day 1. Animals were dosed via either intra-cecal dosing (IC) or oral dosing (PO) at Day 1 (between 6-8 p.m.). All animals resumed feeding at approximately 4 hours after dose ([…]. after dosing).
Animals in Group 1 (Vehicle Control) were administered a single intra-cecal ingestible device containing 0.8 mL Vehicle solution (80% alcohol, 20% castor oil (HCO-60) on Day 1. On Day −10 the animals were anesthetized, and a veterinary surgeon surgically placed an intra-cecal port in each animal. On Day 1, each animal was placed into a sling then a single intra-cecal ingestible device containing 0.8 mL vehicle solution (80% alcohol, 20% castor oil (HCO-60)) is introduced by the veterinary surgeon into the cecum via the cecal port in each animal. Following ingestible device placement, the animals were removed from the slings and placed back into their pens with water. All animals resumed feeding at approximately 4 hours after dose. […] A total of 60 samples were collected.
Approximately 200˜400 mg of rectal content were collected, if available, with a fecal swab (Copan Diagnostics Nylon Flocked Dry Swabs, 502CS01). The fecal swab was pre-weighed and weighed after collection in the collection tube (Sterile Tube and Cap No Media, PFPM913S), and the sample weight was recorded. The fecal swab was broken via the breakpoint, and was stored in the collection tube, and immediately frozen at −70° C. […] Immediately following euthanasia, tissue was collected.
For tissue necropsy, small intestine fluid and cecal fluid were collected separately from all the animals into two separate square plastic bottles, and stored at −20° C. The length and diameter of the cecum and the colon was measured from one animal in each group and recorded for reference. Tissues were collected for pharmacokinetic analyses and include mesenteric lymph nodes, a Peyer's Patch, and five gastrointestinal sections, including cecum, proximal colon, transverse colon, distal colon, and rectum. All samples were weighed, and the tissue sample weights were recorded. […] Around 3 grams of the total punched sample were collected into a pre-weighed 15-mL conical tube, and the tissue weight was recorded. […]

[3] = female, Yorkshire-Cross, pig, po
[4] = female, Yorkshire-Cross, pig, po, 12 h

C=CC[C@@H]1/C=C(\C)C[C@H](C)C[C@H](OC)[C@H]2O[C@@](O)(C(=O)C(=O)N3CCCC[C@H]3C(=O)O[C@H](/C(C)=C/[C@@H]3CC[C@@H](O)[C@H](OC)C3)[C@H](C)[C@@H](O)CC1=O)[C@H](C)C[C@@H]2OC [tacrolimus]
Kp at 12 h [1, 3]: 0
Tissue (mean) (ng/g)/AUG(0-12 hr)(ng·hr/ml) Ratio [1, 4]: 0
Tissue (mean) (ng/g)/Trough(12 hr)(ng/ml) Ratio [1, 4]: 0
Trough (12 hr) [1, 4]: 0.568 ng/mL
concentration at 12 h ([1]; female, Yorkshire-Cross, pig, po, Trough (12 hr)): 0.568 ng/mL
AUC0-12 hours in the blood [1]: higher
mean concentration in the blood [1]: higher
systemic concentrations [2, 3]: equivalent to low dose IC group (0.02 mg/kg)
luminal content (spiral, transverse, and distal colon) concentrations [2]: Significantly higher
mean concentration in the cecum tissue and the proximate colon tissue [2]: higher
tissue (spiral and transverse colon) concentrations [2]: Significantly higher
level in tissue ([2]; po): No measurable level
